Results reported in US4476298A, “Erythromycin A derivatives” (Taisho Pharmaceutical Co., Ltd., priority 1981, dated 1984).
In brackets after ≈: the same amount, converted by molar mass. Like-named read-outs stand apart in the source and are kept apart here.

How the values were obtained:
Assay in all cases: antibacterial activity (MIC), agar plate dilution method
Assay type in all cases: cell-based
[1] = test system: Streptococcus faecalis ATCC 8043; conditions: for MIC: Enterococcus faecalis
Procedure: (§1) Erythromycin A was used as a control, and the compounds of formula I derived from Fractions A, B and C were tested for antibacterial activity against various bacteria by the agar plate dilution method.

[2] = test system: Staphylococcus aureus TPR 25; conditions: for MIC: Staphylococcus aureus
Procedure: as §1

Micrococcus luteus NIHJ = conditions: for MIC: read-out: MIC value (minimal inhibitory concentration)
Procedure: as §1

[3] = test system: Staphylococcus aureus smith; conditions: for MIC: Staphylococcus aureus, read-out: MIC value (minimal inhibitory concentration)
Procedure: as §1

Bacillus subtilis EM-R = conditions: for MIC: Bacillus subtilis, read-out: MIC value (minimal inhibitory concentration), Bacillus subtilis EM-R, strain resistant to erythromycin
Procedure: as §1

[4] = test system: Staphylococcus aureus TPR 13; conditions: for MIC: Staphylococcus aureus
Procedure: as §1

[5] = test system: Staphylococcus aureus TPR 23; conditions: for MIC value (minimal inhibitory concentration): Staphylococcus aureus TPR 23, strain resistant to erythromycin; for MIC: Staphylococcus aureus
Procedure: as §1

[6] = test system: Staphylococcus aureus FDA 209 P; conditions: for MIC: Staphylococcus aureus
Procedure: as §1

[7] = test system: Staphylococcus epidermidis IID 866; conditions: for MIC: Staphylococcus epidermidis
Procedure: as §1

[8] = ATCC8043, Streptococcus faecalis ATCC 8043, agar plate dilution, read-out: MIC value (minimal inhibitory concentration)
[9] = TPR25, Staphylococcus aureus TPR 25, strain resistant to erythromycin, agar plate dilution, read-out: MIC value (minimal inhibitory concentration)
[10] = Micrococcus luteus NIHJ, agar plate dilution
[11] = Staphylococcus aureus smith, agar plate dilution
[12] = TPR13, Staphylococcus aureus TPR 13, strain resistant to erythromycin, agar plate dilution, read-out: MIC value (minimal inhibitory concentration)
[13] = FDA209, Staphylococcus aureus FDA 209 P, agar plate dilution, read-out: MIC value (minimal inhibitory concentration)
[14] = IID866, Staphylococcus epidermidis IID 866, agar plate dilution, read-out: MIC value (minimal inhibitory concentration)

Row | SMILES | MIC [1, 8] [µg/mL] | MIC [2, 9] [µg/mL] | MIC (Micrococcus luteus NIHJ; [10]) [µg/mL] | MIC [3, 11] [µg/mL] | MIC (Bacillus subtilis EM-R) [µg/mL] | MIC [4, 12] [µg/mL] | MIC value (minimal inhibitory concentration) ([5]; agar plate dilution) [µg/mL] | MIC [6, 13] [µg/mL] | MIC [7, 14] [µg/mL] | also measured
1 | CC[C@H]1OC(=O)[C@H](C)[C@@H](O[C@H]2C[C@@](C)(OC)[C@@H](OC)[C@H](C)O2)[C@H](C)[C@@H](O[C@@H]2O[C@H](C)C[C@H](N(C)C)[C@H]2O)[C@@]2(C)C[C@@H](C)C(OC)(O2)[C@H](C)[C@H]2OC(=O)O[C@@]21C (single isomer, unassigned) [A] | ≤ 0.05 | 1.6 (≈ 2.03 µM) | < 0.05 | 0.4 (≈ 0.508 µM) | 0.4 (≈ 0.508 µM) | 1.6 (≈ 2.03 µM) | 3.1 (≈ 3.93 µM) | ≤ 0.05 | 0.4 (≈ 0.508 µM) | –
2 | CC[C@H]1OC(=O)[C@H](C)[C@@H](O[C@H]2C[C@@](C)(OC)[C@@H](OC)[C@H](C)O2)[C@H](C)[C@@H](O[C@@H]2O[C@H](C)C[C@H](N(C)C)[C@H]2O)[C@@]2(C)C[C@@H](C)C(O)(O2)[C@H](C)[C@H]2OC(=O)O[C@@]21C (single isomer, unassigned) [C] | ≤ 0.05 | 0.8 (≈ 1.03 µM) | < 0.05 | 0.2 (≈ 0.258 µM) | 0.4 (≈ 0.517 µM) | 0.8 (≈ 1.03 µM) | – | ≤ 0.05 | 0.4 (≈ 0.517 µM) | MIC ([5]; TPR23, Staphylococcus aureus TPR 23, strain resistant to erythromycin, agar plate dilution, read-out: MIC value (minimal inhibitory concentration)): 3.1 µg/mL (≈ 4.01 µM)
3 | CC[C@H]1OC(=O)[C@H](C)[C@@H](O[C@H]2C[C@@](C)(OC)[C@@H](O)[C@H](C)O2)[C@H](C)[C@@H](O[C@@H]2O[C@H](C)C[C@H](N(C)C)[C@H]2O)[C@](C)(O)C[C@@H](C)C(=O)[C@H](C)[C@@H](O)[C@]1(C)O [Erythromycin A] | – | – | – | – | > 100 | – | – | – | – | MIC ([1]; ATCC8043, read-out: MIC value (minimal inhibitory concentration)): ≤ 0.05 µg/mL; MIC ([2]; TPR25, read-out: MIC value (minimal inhibitory concentration)): 50 µg/mL (≈ 68.1 µM); MIC (Micrococcus luteus NIHJ; Micrococcus luteus): < 0.05 µg/mL; MIC [3]: 0.2 µg/mL (≈ 0.273 µM); MIC ([4]; TPR13, read-out: MIC value (minimal inhibitory concentration)): 25 µg/mL (≈ 34.1 µM); MIC ([5]; TPR23, read-out: MIC value (minimal inhibitory concentration)): 100 µg/mL (≈ 136 µM); MIC ([6]; FDA209, read-out: MIC value (minimal inhibitory concentration)): ≤ 0.05 µg/mL; MIC ([7]; IID866, read-out: MIC value (minimal inhibitory concentration)): 0.4 µg/mL (≈ 0.545 µM)
4 | CC[C@H]1OC(=O)[C@H](C)[C@@H](O[C@H]2C[C@@](C)(OC)[C@@H](OC)[C@H](C)O2)[C@H](C)[C@@H](O[C@@H]2O[C@H](C)C[C@H](N(C)C)[C@H]2O)[C@@]2(C)C[C@@H](C)C(OC)(O2)[C@H](C)[C@H]2OC(=O)O[C@@]21C (single isomer, unassigned) [B] | – | – | – | – | – | – | 6.25 (≈ 7.93 µM) | – | – | MIC value (minimal inhibitory concentration) ([1]; Streptococcus faecalis ATCC 8043, agar plate dilution): 0.1 µg/mL (≈ 0.127 µM); MIC value (minimal inhibitory concentration) ([2]; Staphylococcus aureus TPR 25, strain resistant to erythromycin, agar plate dilution): 3.1 µg/mL (≈ 3.93 µM); MIC value (minimal inhibitory concentration) (Micrococcus luteus NIHJ; [10]): < 0.05 µg/mL; MIC value (minimal inhibitory concentration) [3, 11]: 0.8 µg/mL (≈ 1.02 µM); MIC value (minimal inhibitory concentration) (Bacillus subtilis EM-R; Bacillus subtilis EM-R, strain resistant to erythromycin): 0.8 µg/mL (≈ 1.02 µM); MIC value (minimal inhibitory concentration) ([4]; Staphylococcus aureus TPR 13, strain resistant to erythromycin, agar plate dilution): 3.1 µg/mL (≈ 3.93 µM); MIC value (minimal inhibitory concentration) ([6]; Staphylococcus aureus FDA 209 P, agar plate dilution): 0.1 µg/mL (≈ 0.127 µM); MIC value (minimal inhibitory concentration) ([7]; Staphylococcus epidermidis IID 866, agar plate dilution): 0.8 µg/mL (≈ 1.02 µM)
